Earlier results on one compound are cited in patent US20070134341A1, “COMPOSITIONS OF LIPOXYGENASE INHIBITORS” (priority 2005, published 2007).

Turning to `CC(c1cc2ccccc2s1)N(O)C(N)=O` (racemic) [Zileuton, (±)-1-(1-benzo[b]thien-2-ylethyl)-1-hydroxyurea], the solubility in acetonitrile result (acetonitrile) was “slightly soluble”. Moreover, the solubility in ethanol entry (ethanol) is “soluble”. The solubility in hexane result (hexane) is “practically insoluble”. Moreover, the solubility in methanol entry (methanol) is on record as “soluble”. Further, the solubility in water entry (water) is reported as “practically insoluble”. Besides, for the setting “water, 25° C.”, the water solubility was 80 to 140 µg/mL.
